Reference: patent US11292773B2, “Small molecule inhibitors of BCL-2-associated death promoter (BAD) phosphorylation” (NATIONAL UNIVERSITY OF SINGAPORE, priority 2017, dated 2022)
Entries after “also recorded” stand apart in the source; their conditions may differ.

Key:
[1] = molecular target: T1, hBAD Ser99 phosphorylation (Homo sapiens, UniProt Q92934); test: Western blot of BAD Ser99 phosphorylation in MCF7 cells; type: cell-based
T1 construct: endogenous in cells; host or cells: MCF7 (A6); 25 carcinoma cell lines of seven cancer types (A7)
T1 sequence (Q92934 1-168): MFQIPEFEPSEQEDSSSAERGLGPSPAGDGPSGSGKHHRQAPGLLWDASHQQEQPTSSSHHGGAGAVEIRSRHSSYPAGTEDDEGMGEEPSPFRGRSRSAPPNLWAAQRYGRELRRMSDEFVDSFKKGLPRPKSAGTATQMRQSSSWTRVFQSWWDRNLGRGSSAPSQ
Procedure: (A) Sensorgrams obtained by SPR analysis of NPB with the BAD protein subunit. The BAD protein subunit was immobilized onto the surface of a CM5 sensor chip. A solution of NPB at variable concentrations (20-100 μM) was injected to generate result binding responses (RU) recorded as a function of time (sec). The results were analyzed using BIA evaluation 3.1. (B) Western blot (WB) analysis was used to assess the level of Ser99 phosphorylation of BAD in MCF7 cells after treatment with NPB. (Below) Calculated IC50 of NPB from dose-response for BAD phosphorylation (Ser99), BAD and β-ACTIN as in shown above by use of ImageJ software from NIH, USA (http://imagej.nih.gov/ij/). (C) WB analysis was used to assess the level of a multiple proteins involved upstream of BAD in MCF7 cells after treatment with NPB. (D) WB analysis was used to assess the level of a multiple protein involved cell survival and cell proliferation in MCF7 cells after treatment with NPB. For WB analysis, soluble whole cell extracts were run on an SDS-PAGE and immunoblotted as described in methodology. β-ACTIN (ACTB) was used as an input control for cell lysate. The sizes of detected protein bands in kDa are shown on the left side.
Phosphorylation of hBAD at residues Ser-75 (mouse BAD serine residue 112) and Ser-99 (mouse BAD serine residue 136) are crucial in regulating the activity of the BCL-2 family of anti-apoptotic proteins. hBAD phosphorylation either at Ser-75 or Ser99 (or the corresponding residues in mouse bad) results in loss of the ability of hBAD to heterodimerize with BCL-xL or BCL-2 [15]. To further validate the predicted target, we first analyzed the effect of NPB on phosphorylation of hBAD at Ser99 by western blot analysis.

[2] = system: MCF7 cells; test: Annexin V and propidium iodide apoptosis assay (FACS); type: cell-based, human; details: about 24 hours, dose dependent manner
Procedure: Phosphatidylserine exposure and cell death are assessed by FACS analysis using Annexin-V-FLUOS Staining Kit (Life Technologies, Singapore) and PI-stained cells. Briefly, 1×10^5 MCF cells/well (190 μL/well) are seeded in 6-well plates and incubated with different concentrations of NPB for about 24 hours and DMSO treated samples are used as control. Cells are then washed with Annexin V binding buffer (10 mM HEPES/NaOH, pH7.4, 140 mM NaCl, 2.5 mM CaCl2), stained with Annexin V FITC for about 30 minutes at room temperature in the dark, then washed again and re-suspended in Annexin V binding buffer containing PI. Samples are analyzed immediately on a BD FACSAria Cell Sorter (BD Biosciences, San Jose, Calif.).
Loss of membrane integrity and translocation of phosphatidylserine to outer leaflet of plasma membrane are the early events of apoptosis which can be detected using FITC conjugated annexin-V and propidium iodide staining. It is observed that NPB induces apoptosis in MCF7 cells using FITC-annexin V and propidium iodide. On treatment with NPB, increase in both early (PI negative, FITC-Annexin V positive) and late apoptotic cells (PI positive, FITC-Annexin V positive) is observed in a dose dependent manner as shown in FIG. 13A.

[3] = system: carcinoma cell lines (mammary, endometrial, ovarian, liver, colon, prostate, pancreatic); test: ApoTox-Glo Triplex assay (viability, caspase 3/7, cytotoxicity) in carcinoma cell lines; type: cell-based, human; details: all tested cancer cell lines
Excerpt: NPB was subsequently evaluated against panel of normal immortalized mammary epithelial cells (MCF10A and MCF12A), normal hepatocytes (LO2), mammary carcinoma (BT549, MDA-MB-231, MCF7, T47D, BT474), endometrial cancer (Ishikawa, Ecc1, RL95-2, AN3), ovarian cancer (SK-OV-3, OVCAR-2, Caov-3, HEY C2, Ovca433), liver cancer (Hep3B, H2P, H2M), colon cancer (HCT116, DLD-1, Caco-2), prostate cancer (PC3, LNCaP, DU145) and pancreatic cancer (AsPC-1, BxPC-3) cells. […] Using a Laplacian-modified Naïve Bayes classifier, NPB is subjected to in silico analysis which anticipates the human target of NPB as BAD protein.
Effect of NPB (5 μM) on carcinoma cell viability including, mammary, endometrial, ovarian, liver, colon, prostate, and pancreatic carcinoma cell lines. (A) Cell viability (B) caspase 3/7 activities and (C) cytotoxicity were evaluated using ApoTox-GIo™ Triplex Assay Kit as described in methodology. Statistical significance was assessed by an unpaired two-tailed Student's t-test using GraphPad Prism5. The column represents mean of triplicate determinations; bars, ±SD. **P<0.001, *P<0.05. Note: RFU, relative fluorescence unit; RLU, relative luminescence unit, #; non-transformed, immortalized epithelial cells; MB-231, MDA-MB-231. […]

O=C(NC1CCCC1)c1cccc(C(c2ccccc2O)N2CCN(c3cccc(Cl)c3Cl)CC2)c1 (centres unmarked) [NPB, N-cyclopentyl-3-((4-(2,3-dichlorophenyl)piperazin-1-yl)(2-hydroxyphenyl)methyl) benzamide]
phosphorylation of hBAD Ser99 [1]: dose dependent decrease | total hBAD protein [1]: without a significant change | EC50 ([1]; ImageJ, read-out: EC50 for inhibition of BAD Ser99 phosphorylation): 410 ± 210 nM | early and late apoptotic cells (FITC-Annexin V / PI) [2]: increase | apoptosis in cancer cell lines [3]: significantly enhanced; also recorded: induce apoptotic cell death
